From patent publication US10004701B2, “Methods and compositions for treating infection” (UNIVERSITY OF ROCHESTER, priority 2012, dated 2018)

Legend:
Experiment in all cases: AK assay 384-well format, Prestwick library screening
[1] = tested on: K. pneumoniae; type: cell-based, Klebsiella pneumoniae; details: 50 μM final drug concentration; for AK-based Prestwick Library Screening Results, K. pneumoniae (fold increase in extracellular AK activity): planktonic
[2] = tested on: A. baumannii strain 98-37-09; type: cell-based, Acinetobacter baumannii; details: 50 μM final drug concentration; for AK-based Prestwick Library Screening Results, A. baumannii (fold increase in extracellular AK activity): planktonic
[3] = tested on: E. coli; type: cell-based, Escherichia coli; details: 50 μM final drug concentration; for AK-based Prestwick Library Screening Results, E. coli (fold increase in extracellular AK activity): planktonic
[4] = tested on: E. faecium; type: cell-based, Enterococcus faecium; details: 50 μM final drug concentration; for AK-based Prestwick Library Screening Results, E. faecium (fold increase in extracellular AK activity): planktonic
[5] = tested on: P. aeruginosa; type: cell-based, Pseudomonas aeruginosa; details: 50 μM final drug concentration; for AK-based Prestwick Library Screening Results, P. aeruginosa (fold increase in extracellular AK activity): planktonic
[6] = tested on: E. cloacae; type: cell-based, Enterobacter cloacae; details: 50 μM final drug concentration; for AK-based Prestwick Library Screening Results, E. cloacae (fold increase in extracellular AK activity): planktonic
[7] = tested on: S. aureus strain USA300-0114; type: cell-based, Staphylococcus aureus; details: 50 μM final drug concentration; for AK-based Prestwick Library Screening Results, S. aureus (fold increase in extracellular AK activity): planktonic
[8] = cutoff for positive-scoring molecules 3-fold increase
[9] = 384-well format, cutoff for positive-scoring molecules 3-fold increase

Beta-Escin
AK-based Prestwick Library Screening Results, K. pneumoniae (fold increase in extracellular AK activity) [1, 8]: 0.7
AK-based Prestwick Library Screening Results, A. baumannii (fold increase in extracellular AK activity) [2, 8]: 0.8
AK-based Prestwick Library Screening Results, E. coli (fold increase in extracellular AK activity) [3, 8]: 0.9
AK-based Prestwick Library Screening Results, E. faecium (fold increase in extracellular AK activity) [4, 8]: 0.9
AK-based Prestwick Library Screening Results, P. aeruginosa (fold increase in extracellular AK activity) [5, 8]: 0.7
AK-based Prestwick Library Screening Results, E. cloacae (fold increase in extracellular AK activity) [6, 8]: 1.4
AK-based Prestwick Library Screening Results, S. aureus (fold increase in extracellular AK activity) [7, 8]: 0.8

Bromocryptine mesylate
AK-based Prestwick Library Screening Results, K. pneumoniae (increase in extracellular AK activity) ([1]; 384-well format, […]): 1.1
AK-based Prestwick Library Screening Results, A. baumannii (increase in extracellular AK activity) ([2]; 384-well format, […]): 1.4
AK-based Prestwick Library Screening Results, E. coli (increase in extracellular AK activity) ([3]; 384-well format, […]): 1.3
AK-based Prestwick Library Screening Results, E. faecium (increase in extracellular AK activity) ([4]; 384-well format, […]): 0.9
AK-based Prestwick Library Screening Results, P. aeruginosa (increase in extracellular AK activity) ([5]; 384-well format, […]): 1.1
AK-based Prestwick Library Screening Results, E. cloacae (increase in extracellular AK activity) ([6]; 384-well format, […]): 1.4
AK-based Prestwick Library Screening Results, S. aureus (increase in extracellular AK activity) ([7]; 384-well format, […]): 0.6

Butirosin disulfate salt
AK-based Prestwick Library Screening Results, K. pneumoniae (fold increase in extracellular AK activity) [1, 8]: 0.5
AK-based Prestwick Library Screening Results, A. baumannii (fold increase in extracellular AK activity) [2, 8]: 0.5
AK-based Prestwick Library Screening Results, E. coli (fold increase in extracellular AK activity) ([3]; […]): 0.5
AK-based Prestwick Library Screening Results, E. faecium (fold increase in extracellular AK activity) [4, 8]: 0.8
AK-based Prestwick Library Screening Results, P. aeruginosa (fold increase in extracellular AK activity) [5, 8]: 0.5
AK-based Prestwick Library Screening Results, E. cloacae (fold increase in extracellular AK activity) [6, 8]: 0.4
AK-based Prestwick Library Screening Results, S. aureus (fold increase in extracellular AK activity) [7, 8]: 0.5

Carbinoxamine maleate salt
AK-based Prestwick Library Screening Results, K. pneumoniae (fold increase in extracellular AK activity) [1, 8]: 0.6
AK-based Prestwick Library Screening Results, A. baumannii (fold increase in extracellular AK activity) [2, 8]: 0.7
AK-based Prestwick Library Screening Results, E. coli (fold increase in extracellular AK activity) [3, 8]: 0.7
AK-based Prestwick Library Screening Results, E. faecium (fold increase in extracellular AK activity) [4, 8]: 0.8
AK-based Prestwick Library Screening Results, P. aeruginosa (fold increase in extracellular AK activity) [5, 8]: 0.6
AK-based Prestwick Library Screening Results, E. cloacae (fold increase in extracellular AK activity) [6, 8]: 0.7
AK-based Prestwick Library Screening Results, S. aureus (fold increase in extracellular AK activity) [7, 8]: 0.6

Clofilium tosylate
AK-based Prestwick Library Screening Results: K. pneumoniae (increase in extracellular AK activity) ([1]; planktonic K. pneumoniae, 384-well, cutoff for positive-scoring molecules 3-fold increase): 1.5
AK-based Prestwick Library Screening Results: A. baumannii (increase in extracellular AK activity) ([2]; planktonic A. baumannii, 384-well, cutoff for positive-scoring molecules 3-fold increase): 1.6
AK-based Prestwick Library Screening Results: E. coli (increase in extracellular AK activity) ([3]; planktonic E. coli, 384-well, cutoff for positive-scoring molecules 3-fold increase): 1.5
AK-based Prestwick Library Screening Results: E. faecium (increase in extracellular AK activity) ([4]; planktonic E. faecium, 384-well, cutoff for positive-scoring molecules 3-fold increase): 1.4
AK-based Prestwick Library Screening Results: P. aeruginosa (increase in extracellular AK activity) ([5]; planktonic P. aeruginosa, 384-well, cutoff for positive-scoring molecules 3-fold increase): 1.3
AK-based Prestwick Library Screening Results: E. cloacae (increase in extracellular AK activity) ([6]; planktonic E. cloacae, 384-well, cutoff for positive-scoring molecules 3-fold increase): 1.2
AK-based Prestwick Library Screening Results: S. aureus (increase in extracellular AK activity) ([7]; planktonic S. aureus, 384-well, cutoff for positive-scoring molecules 3-fold increase): 1.2

Colistin sulfate
AK-based Prestwick Library Screening Results, K. pneumoniae (increase in extracellular AK activity) ([1]; planktonic K. pneumoniae, […]): 24.1
AK-based Prestwick Library Screening Results, A. baumannii (increase in extracellular AK activity) ([2]; planktonic A. baumannii, […]): 10.0
AK-based Prestwick Library Screening Results, E. coli (increase in extracellular AK activity) ([3]; planktonic E. coli, […]): 42.2
AK-based Prestwick Library Screening Results, E. faecium (increase in extracellular AK activity) ([4]; planktonic E. faecium, […]): 1.0
AK-based Prestwick Library Screening Results, P. aeruginosa (increase in extracellular AK activity) ([5]; planktonic P. aeruginosa, […]): 23.6
AK-based Prestwick Library Screening Results, E. cloacae (increase in extracellular AK activity) ([6]; planktonic E. cloacae, […]): 0.7
AK-based Prestwick Library Screening Results, S. aureus (increase in extracellular AK activity) ([7]; planktonic S. aureus, […]): 0.6

Cotinine (−)
AK-based Prestwick Library Screening Results, K. pneumoniae (increase in extracellular AK activity) [1, 9]: 0.4
AK-based Prestwick Library Screening Results, A. baumannii (increase in extracellular AK activity) [2, 9]: 0.3
AK-based Prestwick Library Screening Results, E. coli (increase in extracellular AK activity) ([3]; 384-well format, […]): 0.5
AK-based Prestwick Library Screening Results, E. faecium (increase in extracellular AK activity) [4, 9]: 0.8
AK-based Prestwick Library Screening Results, P. aeruginosa (increase in extracellular AK activity) [5, 9]: 0.3
AK-based Prestwick Library Screening Results, E. cloacae (increase in extracellular AK activity) [6, 9]: 0.3
AK-based Prestwick Library Screening Results, S. aureus (increase in extracellular AK activity) [7, 9]: 0.4

Cyanocobalamin
AK-based Prestwick Library Screening Results, K. pneumoniae (increase in extracellular AK activity) ([1]; planktonic K. pneumoniae, cutoff for positive-scoring molecules 3-fold increase): 0.6
AK-based Prestwick Library Screening Results, A. baumannii (increase in extracellular AK activity) ([2]; planktonic A. baumannii, cutoff for positive-scoring molecules 3-fold increase): 0.8
AK-based Prestwick Library Screening Results, E. coli (increase in extracellular AK activity) ([3]; planktonic E. coli, […]): 0.8
AK-based Prestwick Library Screening Results, E. faecium (increase in extracellular AK activity) ([4]; planktonic E. faecium, cutoff for positive-scoring molecules 3-fold increase): 0.8
AK-based Prestwick Library Screening Results, P. aeruginosa (increase in extracellular AK activity) ([5]; planktonic P. aeruginosa, cutoff for positive-scoring molecules 3-fold increase): 0.7
AK-based Prestwick Library Screening Results, E. cloacae (increase in extracellular AK activity) ([6]; planktonic E. cloacae, cutoff for positive-scoring molecules 3-fold increase): 1.2
AK-based Prestwick Library Screening Results, S. aureus (increase in extracellular AK activity) ([7]; planktonic S. aureus, cutoff for positive-scoring molecules 3-fold increase): 0.5
